# Results taken from US6890954B1, “Uses of 2-bromopalmitate in the treatment of autoimmune disease” (priority 1999, dated 2005).
# How the values were obtained:
# Type in all cases: cell-based
# Vav = experiment: CD3-mediated tyrosine phosphorylation of Vav in Jurkat cells; details: 100 μM 3 hours, OKT3
# Protocol: (§1) Jurkat T cells (2×10^6−1×10^7) were centrifuged at 1,000×g for 5 minutes, rinsed with RPMI, resuspended in RPMI supplemented with 2% dialyzed FBS, 0.5% defatted BSA, and incubated with or without 100 μM 2-bromopalmitate at 8×10^5 cells/ml for 3 hours. The cells were centrifuged, washed with RPMI and resuspended in RPMI at 1×10^7−1×10^8 cells/ml. The cells were then activated with anti-CD3 OKT3 mAb (0.3 mg/ml) for 3 min at 37° C., quickly spun down, washed once with cold RPMI and once with cold STE, and lysed in RIPA Samples were solubilized in 1× sample buffer containing 5% β-mercaptoethanol and subjected to SDS-PAGE, followed by immunoblotting with anti-phosphotyrosine antibody (PY99). For analysis of specific proteins, RIPA lysates were immunoprecipitated with the specific antibodies O/N, and immunoblotted for phosphotyrosine. Alternatively, proteins were immunoprecipitated with agarose-conjugated anti phosphotyrosine antibody and blotted for the specific proteins.
# (§2) In order to identify the individual proteins whose tyrosine phosphorylation is affected by 2-bromopalmitate, lysates were immunoprecipitated with a panel of specific antibodies, and immunoblotted for phosphotyrosine. Alternatively, lysates were immunoprecipitated with an antiphosphotyrosine antibody, and blotted with antibodies to specific proteins.
# Fyn [1] = biological target: T1, Fyn (Homo sapiens, UniProt P06241); experiment: Fyn fatty acylation (IC13/IC16 incorporation) in transfected COS-1 cells; details: COS-1 cells, 100 μM 2-bromopalmitate, normalized for total protein levels
# T1 construct: expressed in transfected cells; host or cells: COS-1
# Protocol: The syntheses of 13-[^125I]-iodotridecanoic acid (IC13)or 16-[^125I]-iodohexanoic acid (IC16) were carried out as described previously (39). Cell labeling was carried out as described (12,13) with modifications. Briefly, each 60 mm plate of Fyn transfected COS-1 cells was incubated O/N in DMEM containing 2.5% FBS, 0.5% defatted BSA (Sigma) with or without 100 μM 2-bromopalmitate or 50 μM polyunsaturated fatty acid. Prior to labeling, the cells were incubated for 1 hr with 1 ml of DMEM containing 2% dialyzed FBS, then labeled for 4 hours with 25-50 μCi IC13 or IC16 in DMEM containing 2% dialyzed FBS, 0.5% defatted BSA with or without 2-bromopalmitate or polyunsaturated fatty acid. Labeled cells were washed three times with cold STE (100 mM NaCl, 10 mM Tris pH 7.4, 1 mM EDTA) and lysed in 0.6 ml of cold RIPA buffer containing protease inhibitors (10 μg/ml each of benzamidine, AEBSF, TPCK and TLCK, 1.5 μg/ml each of Leupeptin, Pepstatin A and Aprotinin). Lysates were clarified at 100,000×g for 15 min at 4° C. in a Beckman TL-100 ultracentrifuge. Lysates were immunoprecipitated with rabbit anti-Fyn antibody and protein A-agarose. Immunoprecipitates were washed three times with cold RIPA buffer and suspended in 1× sample buffer containing 100 mM dithiothreitol and subjected to SDS-PAGE. Gels were dried between cellophane and analyzed by phosphorimaging after 12-36 hours exposure. Experiments in Jurkat T cells were carried out according to the above protocol using 2×10^7 cells per experiment, and reducing the incubation time with 2-bromopalmitate to 3-4 hours.
# A number of palmitic acid analogs were screened for their ability to inhibit Fyn palmitoylation. COS-1 cells were transfected with cDNA encoding Fyn. Three days after transfection, the cells were labeled with either [^35S]-methionine, 13-[^125I]-iodotridecanoic acid (IC13), an iodinated myristate analog, or 16-[^125I]-iodohexanoic acid (IC16), an iodinated palmitic acid analog (39), in the presence or absence of nonradioactive palmitate analogs. Cells were lysed, immunoprecipitated with anti-Fyn antibody, and analyzed by SDS-PAGE and phosphorimaging. […] When normalized for total protein levels, 70% of Fyn myristoylation and over 90% of Fyn palmitoylation was inhibited in the presence of 2-bromopalmitate. Treatment of cells with other analogs, including 2-hydroxypalmitate, palmitoleic acid and 16-hydroxypalmitate had no effect (data not shown).
# To test this hypothesis, Fyn transfected COS-1 cells were incubated O/N with or without 50 μM arachidonic acid (20:4) or eicosapentaenoic acid (20:5), then labeled with IC13 or IC16. Total protein levels were monitored by immunoblotting aliquots of each sample with anti-Fyn antibody (FIG. 8A, lower panel).
# Fyn [2] = experiment: Subcellular fractionation (P100/S100) of Fyn in COS-1 cells
# Protocol: Each 60 mm plate of Fyn transfected COS-1 cells was starved for […] in DMEM containing 2.5% FBS and 0.5% defatted BSA with or without 100 μM 2-bromopalmitate. After overnight culture at 37° C., the cells were fractionated into P100 and S100 fractions, immunoprecipitated with anti-Fyn antibody, subjected to SDS-PAGE, and immunoblotted with anti-Fyn antibody as previously described (9,12,13).
# For analysis of newly synthesized Fyn, cells were cultured overnight as descibed above, then starved for 1 hr in DMEM minus methionine and cysteine containing 2% dialyzed FBS, 0.5% defatted BSA with or without 100 μM 2-bromopalmitate. Cells were labeled for 5 minutes with Trans^35S-Label (ICN, Irvine, Calif.), then fractionated as described above. Gels were treated for 20 minutes with 1M salicylic acid prior to drying. The Gαo(10)-Fyn chimera was labeled for 5 min and GAP-43 Fyn chimera was labeled for 2 hours and fractionated according to the above conditions.
# Newly synthesized Fyn becomes plasma membrane bound within 5 minutes after biosynthesis (12). The rapid membrane targeting is dependent on dual fatty acylation of Fyn with myristate and palmitate. The effect of 2-bromopalmitate on the ability of newly synthesized Fyn to localize to membranes was next examined. Transfected COS-1 cells were incubated for 12-16 hours with or without 100 μM 2-bromopalmitate. […]
# LAT = experiment: CD3-mediated tyrosine phosphorylation of LAT in Jurkat cells; details: 100 μM 3 hours, OKT3
# Protocol: as §1, §2
# T1 sequence (P06241 whole entry, species assumed): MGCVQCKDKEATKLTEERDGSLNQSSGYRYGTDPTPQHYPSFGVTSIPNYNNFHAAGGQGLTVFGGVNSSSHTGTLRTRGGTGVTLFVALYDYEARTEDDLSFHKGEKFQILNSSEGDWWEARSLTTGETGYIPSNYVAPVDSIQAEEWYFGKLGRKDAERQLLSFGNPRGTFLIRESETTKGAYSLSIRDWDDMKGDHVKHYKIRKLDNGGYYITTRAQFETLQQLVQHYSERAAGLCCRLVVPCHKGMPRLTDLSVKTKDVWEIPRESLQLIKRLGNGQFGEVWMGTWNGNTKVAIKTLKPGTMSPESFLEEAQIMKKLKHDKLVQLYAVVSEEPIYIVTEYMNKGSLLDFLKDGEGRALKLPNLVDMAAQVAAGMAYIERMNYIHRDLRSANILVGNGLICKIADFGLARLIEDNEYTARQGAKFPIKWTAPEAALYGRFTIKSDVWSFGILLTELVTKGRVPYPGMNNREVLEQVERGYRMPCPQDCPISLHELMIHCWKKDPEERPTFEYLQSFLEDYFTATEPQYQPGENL
structure (smiles),measurement,setting,value
CCCCCCCCCCCCCCC(Br)C(=O)O (stereo not drawn) [2-bromopalmitate],Vav phosphorylation inhibited,Vav,40%
same,Fyn myristoylation inhibited,Fyn [1]; IC13 label,70%
same,Fyn palmitoylation inhibited,Fyn [1]; IC16 label,over 90%
same,newly synthesized Fyn remaining cytosolic,"Fyn [2]; COS-1, 100 μM for 12-16 hours, 5 min 35S label, untreated 90% membrane bound",50%
same,steady-state Fyn fractionating in the cytosol,"Fyn [2]; COS-1, 100 μM, Western blot, data not shown",50%
same,CD3-mediated tyrosine phosphorylation of LAT,LAT,inhibited completely
